Laboratory results reported in paper PMC11161644, “An effective and rapidly degradable disinfectant from disinfection byproducts” (Nature Communications, 2024).
Where two headings read alike, the source gives them in different places.

How the values were obtained:
E. coli (ATCC 25922) = test: Inactivation of E. coli by disinfectants (membrane filter enumeration, contact time 5 min); type: cell-based, Escherichia coli; conditions: for Log reduction (Mean ± SD): E. coli; for Log reduction (Mean ± SD) / E. coli inactivation rate constant k: pH 7.2, contact time 5 min; for log reduction at 3000 µg/mL: Escherichia coli, ATCC25922, 5 min, dose 3000 mg L-1, 5 min, read-out: Log (N/N0)
Procedure: The chemicals and reagents used are detailed in Supplementary Note 1. The bacteria E. coli (ATCC 25922) and S. aureus (ATCC 25923) were cultured aerobically in Luria-Bertani broth (Sigma-Aldrich) and Tryptone Soya broth (Oxoid), respectively, at 37 °C for 16 h. The fungus C. albicans (ATCC 14053) was aerobically cultured in Sabouraud Dextrose broth (Difco) at 37 °C for 24 h. The microorganism cells were harvested by centrifugation at 1200×g (10 min, 4 °C) and resuspended in phosphate-buffered saline (PBS, 10 mM, pH 7.2). The disinfection experiments were performed in PBS solutions (10 mM, pH 7.2) with an initial concentration of E. coli, S. aureus, or C. albicans of 10^6‒10^7 cells per milliliter. A contact time of 5 min was used in accordance with the recommended time range of 0.25–10 min by USEPA for surface disinfection. Preliminary tests were conducted to determine the appropriate range of DBP doses. The appropriate dose range was established when the lowest and highest doses could achieve <1-log and >3-log of microbial inactivation, respectively. Based on the preliminary results, a series of doses of DBPs were added to the cell suspensions at room temperature (22 ± 1 °C). After the contact time of 5 min, the microorganism cells were enumerated following a membrane filter method. Briefly, serial 10-fold dilutions were conducted for the disinfected samples and the control sample without disinfection. Each diluted suspension was subjected to filtration through 0.45-μm membrane, which was then placed on a petri dish. The Petri dishes containing E. coli, S. aureus, and C. albicans were incubated in m-FC medium (Becton Dickinson & Co) at 45 °C for 24 h, in Tryptone Soya broth at 37 °C for 24 h and in Sabouraud Dextrose broth at 37 °C for 24 h, respectively. After incubation, the colony-forming units within a statistically reasonable range (20–80) were counted.
The impact of pH on the disinfection efficiencies of DBPs was examined. E. coli (ATCC 25922) was used as the test strain. The disinfection experiments were performed in 10 mM PBS solutions (pH 6.2, 7.2, and 8.2) with an initial E. coli concentration of 10^6‒10^7 cells per milliliter. To initiate the disinfection, a DBP was dosed with a bacteria suspension at a predetermined concentration. After the given contact time (5 min) at room temperature (22 ± 1 °C), the bacteria were enumerated following the membrane filter method. The bacteria concentrations in the 10 mM PBS solutions (pH 6.2, 7.2, and 8.2) without the addition of DBPs were used as controls.

[1] = UPLC/ESI-tqMS time profile of 2,6-DCQ and its degradation products in simulated seawater (pH 8.2, darkness); OH-DCQ formation; conditions: 2,6-DCQ degradation, pH 8.2, darkness
Procedure: A Waters UPLC system coupled with ESI-tqMS was used to characterize the degradation products of 2,6-DCQ. The UPLC separation was performed using an HSS T3 column (100 × 2.1 mm, 1.8 μm particle size, Waters) with a column temperature of 35 °C. A gradient eluent of methanol–water was applied at a flow rate of 0.4 mL min^−1. The gradient program was set as follows: methanol/water (v/v) ratio changed linearly from 5/95 to 90/10 in the first 8 min and then returned to 5/95 during 8.0‒8.1 min, which was held for 2.9 min for re-equilibration. The ESI-tqMS was set as follows: ESI negative mode, capillary voltage 2.8 kV, cone voltage 10–50 V (depending on analytes), cone gas flow 50 L h^−1, source temperature 120 °C, desolvation temperature 400 °C, desolvation gas flow 800 L h^−1, collision energy 15–50 eV (depending on analytes), collision gas (argon) flow 0.25 mL min^−1, and mass resolution 15 (1-unit resolution).
The degradation of 2,6-DCQ in seawater was simulated by adding 10 mg L^−1 2,6-DCQ to 50 mL ultrapure water, which was adjusted to pH 8.2 with 5 mM sodium carbonate (to simulate the alkalinity in seawater and also to be compatible with the subsequent UPLC/ESI-tqMS analysis). The sample was kept in darkness for 0–24 h, during which the pH of the sample was maintained at 8.1 ± 0.1. At a designated reaction time, 7.5 μL of the sample was injected into the UPLC system. For a nonhalogenated degradation product, the selected ion recording (SIR) mode with a dwell time of 0.05 s was adopted to obtain the retention time. For halogenated degradation products, the multiple reaction monitoring mode with a dwell time of 0.05 s was used to obtain the retention time and the isotopic abundance ratio. To investigate the time-dependent profile of 2,6-DCQ and its degradation products, the peak area of each compound was determined using the SIR mode in the UPLC/ESI-tqMS analysis.
The second aliquot was subjected to analysis of total organic halogen to quantify the collected OH-DCQ. The determination of total organic halogen was based on Standard Method 5320B[52], with modifications of using off-line ion chromatography for halide detection. Briefly, the aliquot was dissolved in 100 mL ultrapure water and acidified to pH 2 with concentrated nitric acid[52] prior to adsorption onto pre-packed activated carbon columns (Mitsubishi). A three-channel adsorption module (TXA03C, Mitsubishi Chemical Analytech) was used for adsorption. An AQF-100 automatic quick furnace (Mitsubishi Chemical Analytech) was used for pyrolysis. During the pyrolysis process, the chlorine atoms in OH-DCQ were converted to chloride. The chloride ion concentration was determined using an ICS-3000 ion chromatography system (Dionex). 2,6-DCQ was used as a standard compound for measuring total organic halogen to determine the recovery of the analysis. The total organic halogen analysis was conducted in duplicate.

SMILES: O=C1C=C(Cl)C(=O)C=C1Cl [2,5-DCQ]
- Log reduction (Mean ± SD) (E. coli (ATCC 25922); dose 7.5 mg L−1): 0.77 ± 0.14
- Log reduction (Mean ± SD) (E. coli (ATCC 25922); dose 15 mg L−1): 3.78 ± 0.40

SMILES: O=C(O)c1cc(Br)ccc1O [5-BSA, 5-bromosalicylic acid]
- log reduction at 3000 µg/mL (E. coli (ATCC 25922); pH 6.2, E. coli, pH 6.2): 0.221
- log reduction at 3000 µg/mL (E. coli (ATCC 25922); pH 7.2, E. coli, pH 7.2): 0.132
- log reduction at 3000 µg/mL (E. coli (ATCC 25922); pH 8.2, E. coli, pH 8.2): 0.331
- E. coli inactivation rate constant k (E. coli (ATCC 25922)): < 0.01 L mg‒1 h‒1

SMILES: O=C(O)c1cc(Cl)ccc1O [5-CSA, 5-chlorosalicylic acid]
- log reduction at 3000 µg/mL (E. coli (ATCC 25922); pH 6.2, E. coli, pH 6.2): 0.218
- log reduction at 3000 µg/mL (E. coli (ATCC 25922); pH 7.2, E. coli, pH 7.2): 0.273
- log reduction at 3000 µg/mL (E. coli (ATCC 25922); pH 8.2, E. coli, pH 8.2): 0.304
- E. coli inactivation rate constant k (E. coli (ATCC 25922)): < 0.01 L mg‒1 h‒1

SMILES: O=C(O)c1cc(I)ccc1O [5-ISA, 5-iodosalicylic acid]
- log reduction at 3000 µg/mL (E. coli (ATCC 25922); pH 6.2, E. coli, pH 6.2): 0.247
- log reduction at 3000 µg/mL (E. coli (ATCC 25922); pH 7.2, E. coli, pH 7.2): 0.373
- log reduction at 3000 µg/mL (E. coli (ATCC 25922); pH 8.2, E. coli, pH 8.2): 0.282
- E. coli inactivation rate constant k (E. coli (ATCC 25922)): < 0.01 L mg‒1 h‒1

SMILES: O=C1C=C(Cl)C(=O)C=C1O [SIR 157, 3-hydroxyl-6-monochloro-1,4-benzoquinone]
- Peak area ([1]; 0 h): 131
- Peak area ([1]; 0.25 h): 1090
- Peak area ([1]; 0.5 h): 1291
- Peak area ([1]; 0.75 h): 1521
- Peak area ([1]; 1 h): 1656
- Peak area ([1]; 1.25 h): 1663
- Peak area ([1]; 1.5 h): 1773
- Peak area ([1]; 1.75 h): 1891
- Peak area ([1]; 2 h): 1830
- Peak area ([1]; 2.25 h): 2020
- Peak area ([1]; 2.5 h): 2128
- Peak area ([1]; 2.75 h): 2115
- Peak area ([1]; 3 h): 2124
- Peak area ([1]; 3.25 h): 2427
- Peak area ([1]; 3.5 h): 2418
- Peak area ([1]; 3.75 h): 2409
- Peak area ([1]; 4 h): 2447
- Peak area ([1]; 4.5 h): 2594
- Peak area ([1]; 5 h): 2821
- Peak area ([1]; 5.5 h): 2983
- Peak area ([1]; 6 h): 3514
- Peak area ([1]; 8 h): 4489
- Peak area ([1]; 10 h): 4560
- Peak area ([1]; 12 h): 4418
- Peak area ([1]; 14 h): 4868
- Peak area ([1]; 16 h): 4755
- Peak area ([1]; 18 h): 4648
- Peak area ([1]; 20 h): 5024
- Peak area ([1]; 24 h): 4289

SMILES: O=C1C=C(Cl)C(=O)C(OC2=C(Cl)C(=O)C(Cl)=CC2=O)=C1 [SIR 333]
- Peak area ([1]; 0 h): 25
- Peak area ([1]; 0.25 h): 566
- Peak area ([1]; 0.5 h): 1172
- Peak area ([1]; 0.75 h): 1708
- Peak area ([1]; 1 h): 2037
- Peak area ([1]; 1.25 h): 2462
- Peak area ([1]; 1.5 h): 2725
- Peak area ([1]; 1.75 h): 2905
- Peak area ([1]; 2 h): 3055
- Peak area ([1]; 2.25 h): 3331
- Peak area ([1]; 2.5 h): 3689
- Peak area ([1]; 2.75 h): 3558
- Peak area ([1]; 3 h): 3681
- Peak area ([1]; 3.25 h): 3675
- Peak area ([1]; 3.5 h): 3524
- Peak area ([1]; 3.75 h): 3765
- Peak area ([1]; 4 h): 3768
- Peak area ([1]; 4.5 h): 3886
- Peak area ([1]; 5 h): 4092
- Peak area ([1]; 5.5 h): 3835
- Peak area ([1]; 6 h): 3706
- Peak area ([1]; 8 h): 3365
- Peak area ([1]; 10 h): 2830
- Peak area ([1]; 12 h): 2308
- Peak area ([1]; 14 h): 1768
- Peak area ([1]; 16 h): 1379
- Peak area ([1]; 18 h): 1089
- Peak area ([1]; 20 h): 896
- Peak area ([1]; 24 h): 463
